In the assay the target is T1, human CRHR2 (Homo sapiens, UniProt Q13324).
T1 construct: expressed in transfected cells
T1 sequence (Q13324 1-411): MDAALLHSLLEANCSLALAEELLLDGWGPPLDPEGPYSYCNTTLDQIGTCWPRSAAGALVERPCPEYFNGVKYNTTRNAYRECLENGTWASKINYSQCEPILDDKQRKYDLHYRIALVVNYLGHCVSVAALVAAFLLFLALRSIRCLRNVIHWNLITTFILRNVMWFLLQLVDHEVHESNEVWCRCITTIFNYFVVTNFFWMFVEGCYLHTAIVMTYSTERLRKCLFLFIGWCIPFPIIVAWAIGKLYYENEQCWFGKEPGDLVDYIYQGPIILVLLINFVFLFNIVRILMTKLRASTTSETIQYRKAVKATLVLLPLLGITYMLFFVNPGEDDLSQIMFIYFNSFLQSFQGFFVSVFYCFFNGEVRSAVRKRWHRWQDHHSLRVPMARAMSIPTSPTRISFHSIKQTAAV
The assay is described as follows: cAMP assay in h-CRHR2 transfected SK-N-MC cells. Type of assay: cell-based. Particulars: for Log DR: Table 13, h-SCP control pA50 minus test compound pA50 within same assay batch; for Kd: tested as antagonists of h-SCP at 10 μM, read-out: receptor affinity (KA). A digest of the protocol:
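Intracellular cAMP was read by competition with [125I]-cAMP for an anti-cAMP antibody after HCl lysis of human CRHR2-transfected SK-N-MC cells. Cells had been exposed to peptide, 1 pM to 10 μM, for 60 min at 37 °C in IBMX (10 μM) buffer. A50 and pA50 came from Hill fits; Log DR was computed against h-SCP within each batch.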

Residues, ends and D or L forms follow the SMILES beside them. No end group written: not given here. *: point of attachment. Succinimide(1-Et,3-yl) = CCN1C(=O)CC(*)C1=O Where only a bound is given, the exact number is not on record here.

“TKFTLSLDVPTNIMNLLFNIAKACNLRAQAAANAHLMAQI-NH2 [SEQ ID NO: 25, TKFTLSLDVPTNIMNLLFNIAKACNLRAQAAANAHLMAQI-NH2]”: the “Log DR” value was found to be 0.35.

As to “TKFTLSLDVPTNIMNLLFNIAKCKNLRAQAAANAHLMAQI-NH2 [SEQ ID NO: 24, TKFTLSLDVPTNIMNLLFNIAKCKNLRAQAAANAHLMAQI-NH2]”, the “Log DR” value turned out to be 0.74.

For the compound “TCFTLSLDVPTNIMNLLFNIAKAKNLRAQAAANAHLMAQI-NH2 [SEQ ID NO: 3, TCFTLSLDVPTNIMNLLFNIAKAKNLRAQAAANAHLMAQI-NH2]”, the “Log DR” value is listed as 0.72.

As for “TKCTLSLDVPTNIMNLLFNIAKAKNLRAQAAANAHLMAQI-NH2 [SEQ ID NO: 4, TKCTLSLDVPTNIMNLLFNIAKAKNLRAQAAANAHLMAQI-NH2]”, the “Log DR” value is reported as 1.03.

Take “TKFTLSLDVPTNIMNLLFNIAKAKNLRAQAAANAHCMAQI-NH2 [SEQ ID NO: 37, TKFTLSLDVPTNIMNLLFNIAKAKNLRAQAAANAHCMAQI-NH2]”: the “Log DR” value is given as 1.05.

In the case of “TKFTLCLDVPTNIMNLLFNIAKAKNLRAQAAANAHLMAQI-NH2 [SEQ ID NO: 7, TKFTLCLDVPTNIMNLLFNIAKAKNLRAQAAANAHLMAQI-NH2]”, the “Log DR” value is 2.08.

In the case of “TKFTLSLDVPTNIMNLLFNIAKAKNLRACAAANAHLMAQI-NH2 [SEQ ID NO: 30, TKFTLSLDVPTNIMNLLFNIAKAKNLRACAAANAHLMAQI-NH2]”, the “Log DR” value was found to be 1.28.

Regarding “TKFTLSLDVPTNIMNLLFNIAKAKNLCAQAAANAHLMAQI-NH2 [SEQ ID NO: 28, TKFTLSLDVPTNIMNLLFNIAKAKNLCAQAAANAHLMAQI-NH2]”, the “Log DR” value came out at 0.16.

For the compound “TKFTLSLDVPTNIMNLLFCIAKAKNLRAQAAANAHLMAQI-NH2 [SEQ ID NO: 20, TKFTLSLDVPTNIMNLLFCIAKAKNLRAQAAANAHLMAQI-NH2]”, the “Log DR” value is 0.52.

As for “SLDVPTNIMNLLFNIAKAKNLRAQAAANAHLMAQI-NH2 [SEQ ID NO: 110, SLDVPTNIMNLLFNIAKAKNLRAQAAANAHLMAQI-NH2]”, the Kd is less than 10 µM.

Turning to `CC[C@H](C)[C@H](NC(=O)[C@H](CCC(N)=O)NC(=O)[C@H](C)NC(=O)[C@H](CCSC)NC(=O)[C@H](CC(C)C)NC(=O)[C@H](Cc1c[nH]cn1)NC(=O)[C@H](C)NC(=O)[C@H](CC(N)=O)NC(=O)[C@H](CSC1CC(=O)N(CC)C1=O)NC(=O)[C@H](C)NC(=O)[C@H](C)NC(=O)[C@H](CCC(N)=O)NC(=O)[C@H](C)NC(=O)[C@H](CCCNC(=N)N)NC(=O)[C@H](CC(C)C)NC(=O)[C@H](CC(N)=O)NC(=O)[C@H](CCCCN)NC(=O)[C@H](C)NC(=O)[C@H](CCCCN)NC(=O)[C@H](C)NC(=O)[C@@H](NC(=O)[C@H](CC(N)=O)NC(=O)[C@H](Cc1ccccc1)NC(=O)[C@H](CC(C)C)NC(=O)[C@H](CC(C)C)NC(=O)[C@H](CC(N)=O)NC(=O)[C@H](CCSC)NC(=O)[C@@H](NC(=O)[C@H](CC(N)=O)NC(=O)[C@@H](NC(=O)[C@@H]1CCCN1C(=O)[C@@H](NC(=O)[C@H](CC(=O)O)NC(=O)[C@H](CC(C)C)NC(=O)[C@H](CO)NC(=O)[C@H](CC(C)C)NC(=O)[C@@H](NC(=O)[C@H](Cc1ccccc1)NC(=O)[C@H](CCCCN)NC(=O)[C@@H](N)[C@@H](C)O)[C@@H](C)O)C(C)C)[C@@H](C)O)[C@@H](C)CC)[C@@H](C)CC)C(N)=O` (stereo partly shown) [SEQ ID NO: 45, TKFTLSLDVPTNIMNLLFNIAKAKNLRAQAAC(-NES)NAH LMAQI-NH2] (H-TKFTLSLDVPTNIMNLLFNIAKAKNLRAQAAC(Succinimide(1-Et,3-yl))NAHLMAQI-NH2; N-terminus assumed), the “Log DR” value was −0.01.

As for “TKFTLSLDVPTNIMNLLFNIAKAKNLRC(-IA-PEG MW20000)QA AANAH LMAQI-NH2 (TKFTLSLDVPTNIMNLLFNIAKAKNLRC(IA‑PEG 20 kDa)QAAANAHLMAQI-NH2) [SEQ ID NO: 102]”, the pA50 (Table 14) came to 8.15. In addition, where the note is “Table 14, % of the maximum response obtained to h-SCP”, the αmax stood at 111.1%. Besides, the nH (Table 14, Hill slope) was 1.05. In addition, under “in the presence of 100 nM anti-sauvagine-30, maximal response constrained to 100%”, the pA50 approximate value was roughly 6.89.

Consider `CC[C@H](C)[C@H](NC(=O)[C@H](CCC(N)=O)NC(=O)[C@H](C)NC(=O)[C@H](CCSC)NC(=O)[C@H](CC(C)C)NC(=O)[C@H](Cc1c[nH]cn1)NC(=O)[C@H](C)NC(=O)[C@H](CC(N)=O)NC(=O)[C@H](C)NC(=O)[C@H](C)NC(=O)[C@H](C)NC(=O)[C@H](CCC(N)=O)NC(=O)[C@H](CSC1CC(=O)N(CC)C1=O)NC(=O)[C@H](CCCNC(=N)N)NC(=O)[C@H](CC(C)C)NC(=O)[C@H](CC(N)=O)NC(=O)[C@H](CCCCN)NC(=O)[C@H](C)NC(=O)[C@H](CCCCN)NC(=O)[C@H](C)NC(=O)[C@@H](NC(=O)[C@H](CC(N)=O)NC(=O)[C@H](Cc1ccccc1)NC(=O)[C@H](CC(C)C)NC(=O)[C@H](CC(C)C)NC(=O)[C@H](CC(N)=O)NC(=O)[C@H](CCSC)NC(=O)[C@@H](NC(=O)[C@H](CC(N)=O)NC(=O)[C@@H](NC(=O)[C@@H]1CCCN1C(=O)[C@@H](NC(=O)[C@H](CC(=O)O)NC(=O)[C@H](CC(C)C)NC(=O)[C@H](CO)NC(=O)[C@H](CC(C)C)NC(=O)[C@@H](NC(=O)[C@H](Cc1ccccc1)NC(=O)[C@H](CCCCN)NC(=O)[C@@H](N)[C@@H](C)O)[C@@H](C)O)C(C)C)[C@@H](C)O)[C@@H](C)CC)[C@@H](C)CC)C(N)=O` (stereo partly shown) [SEQ ID NO: 47, TKFTLSLDVPTNIMNLLFNIAKAKNLRC(-NES)QA AANAH LMAQI-NH2] (H-TKFTLSLDVPTNIMNLLFNIAKAKNLRC(Succinimide(1-Et,3-yl))QAAANAHLMAQI-NH2; N-terminus assumed), for which the “Log DR” value is listed as −0.03.

“TKFTLSLDVPTCIMNLLFNIAKAKNLRAQAAANAHLMAQI-NH2 [SEQ ID NO: 13, TKFTLSLDVPTCIMNLLFNIAKAKNLRAQAAANAHLMAQI-NH2]”: the “Log DR” value is −0.01.

In the case of “TKFTLSLDVPTNCMNLLFNIAKAKNLRAQAAANAHLMAQI-NH2 [SEQ ID NO: 14, TKFTLSLDVPTNCMNLLFNIAKAKNLRAQAAANAHLMAQI-NH2]”, the “Log DR” value is greater than 2.

As for “DVPTNIMNLLFNIAKAKNLRAQAAANAHLMAQI-NH2 [SEQ ID NO: 112, DVPTNIMNLLFNIAKAKNLRAQAAANAHLMAQI-NH2]”, the Kd was less than 10 µM.

As to “TKFCLSLDVPTNIMNLLFNIAKAKNLRAQAAANAHLMAQI-NH2 [SEQ ID NO: 5, TKFCLSLDVPTNIMNLLFNIAKAKNLRAQAAANAHLMAQI-NH2]”, the “Log DR” value is recorded as 0.76.

As for “TKFTLSLDVPTNIMNLLFNIAKAKNLRAQAAANAHLMAQC-NH2 [SEQ ID NO: 41, TKFTLSLDVPTNIMNLLFNIAKAKNLRAQAAANAHLMAQC-NH2]”, the “Log DR” value came out at 2.07.

For `CC[C@H](C)[C@H](NC(=O)[C@H](CCC(N)=O)NC(=O)[C@H](C)NC(=O)[C@H](CCSC)NC(=O)[C@H](CC(C)C)NC(=O)[C@H](Cc1c[nH]cn1)NC(=O)[C@H](C)NC(=O)[C@H](CC(N)=O)NC(=O)[C@H](C)NC(=O)[C@H](C)NC(=O)[C@H](C)NC(=O)[C@H](CCC(N)=O)NC(=O)[C@H](C)NC(=O)[C@H](CCCNC(=N)N)NC(=O)[C@H](CC(C)C)NC(=O)[C@H](CSC1CC(=O)N(CC)C1=O)NC(=O)[C@H](CCCCN)NC(=O)[C@H](C)NC(=O)[C@H](CCCCN)NC(=O)[C@H](C)NC(=O)[C@@H](NC(=O)[C@H](CC(N)=O)NC(=O)[C@H](Cc1ccccc1)NC(=O)[C@H](CC(C)C)NC(=O)[C@H](CC(C)C)NC(=O)[C@H](CC(N)=O)NC(=O)[C@H](CCSC)NC(=O)[C@@H](NC(=O)[C@H](CC(N)=O)NC(=O)[C@@H](NC(=O)[C@@H]1CCCN1C(=O)[C@@H](NC(=O)[C@H](CC(=O)O)NC(=O)[C@H](CC(C)C)NC(=O)[C@H](CO)NC(=O)[C@H](CC(C)C)NC(=O)[C@@H](NC(=O)[C@H](Cc1ccccc1)NC(=O)[C@H](CCCCN)NC(=O)[C@@H](N)[C@@H](C)O)[C@@H](C)O)C(C)C)[C@@H](C)O)[C@@H](C)CC)[C@@H](C)CC)C(N)=O` (stereo partly shown) [SEQ ID NO: 49, TKFTLSLDVPTNIMNLLFNIAKAKC(-NES) LRAQA AANAH LMAQI-NH2] (H-TKFTLSLDVPTNIMNLLFNIAKAKC(Succinimide(1-Et,3-yl))LRAQAAANAHLMAQI-NH2; N-terminus assumed), the “Log DR” value turned out to be 0.11.

(Values after US10040838B2, “CRHR2 peptide agonists and uses thereof” (JANSSEN PHARMACEUTICA NV, priority 2008, dated 2018).)
